Values quoted from earlier work in article PMC5531494, “Target specificity, in vivo pharmacokinetics, and efficacy of the putative STAT3 inhibitor LY5 in osteosarcoma, Ewing's sarcoma, and rhabdomyosarcoma” (PLoS ONE, 2017).

Conditions: earlier work of the authors; cited from earlier work

NS(=O)(=O)c1cccc2c1C(=O)c1cccc(O)c1C2=O [LLL12]
oral bioavailability: poor oral bioavailability
